Test results: US20030207791A1, “Materials and methods relating to the treatment of leukaemias” (priority 2000, published 2003)

Columns and labels:
Format in all cases: cell-based
[1] = test system: ΔCC-PML-RAR; experiment: RA sensitivity of transcriptional repression, RARE-G5-TATA reporter; conditions: RA 1 nM-10 μM, repression by ΔCC-PML-RAR
Description: Light units were normalized to expression of a co-transfected β-galactosidase expression plasmid.

[2] = test system: PML-RAR expressing murine primary haemopoietic precursors; experiment: RA relief of differentiation block in transduced murine primary haemopoietic precursors; conditions: RA 3 nM or 1 μM, block by PML-RAR
Description: (§1) FIG. 5. […] (C-D) Effects of RAR chimeric proteins on differentiation of murine hematopoietic progenitors. Lin-cells were transduced with the indicated retroviral vectors and then sorted by FACS on the basis of their GFP positivity. In the case of ΔCC-PML-RAR, GFP+ cells were sorted in GFP^high or GFP^low expressors.
(§2) Murine hematopoietic progenitors were purified from the bone marrow of 12 weeks old BALB-C mice using commercially available kits (StemCell Tecnology). Cells were selected on the basis of the absence of lineage differentiation markers (lin−). Purified cells were pre-stimulated for two days in medium containing IL-3 (20 ng/ml), IL-6 (20 ng/ml) and stem cell factor (SCF, 100 ng/ml) and then attached to Retronectin (Takara Shuzo)-coated multiwell plates. Cells were incubated for 48 hours with the filtered supernatant from ecotropic packaging cells (Phoenix) transiently transfected with the indicated retroviral constructs (Grignani et al., 1998).

[3] = test system: CC-RAR expressing murine primary haemopoietic precursors; experiment: as above; conditions: RA 3 nM or 1 μM, block by CC-RAR
Description: as §1, §2

[4] = test system: murine hematopoietic progenitors (lin-); experiment: In vitro differentiation of murine hematopoietic progenitor cells transduced with retroviral constructs; conditions: control cells, RA 3 nM or 1 μM; maximum; as described (Purton et al., 1999)
Experimental: FIG. 5. A heterologous oligomerization domain activates the transforming potential of RAR. (A-B) p53-RAR form oligomers. (A) Nuclear extracts from COS-1 cells transfected with expression vectors for p53-RAR or RAR were incubated with tritiated RA (10 nM), fractionated and analysed as described in FIG. 3A. Note that the low MW peak of RA-binding capacity (coinciding with RAR) in p53-RAR cells derives from expression of wild type RAR, starting from its own ATG-conserved in the p53-RAR expression vector (see below)-. (B) Fractions from gel filtration of in vitro translated, ^35-S labelled p53-RAR were analysed by SDS-PAGE, followed by autoradiography. Note that two products are generated in the reaction: full-length p53-RAR, fractionating in oligomeric complexes, and RAR, starting from the internal ATG site of RAR and fractionating as a monomer. […] After sorting, cells were either plated in differentiation medium in the absence or in the presence of RA (3 nM or 1 μM) (C), or analysed by Western blot (D). […]
The capacity of p53-RAR to block differentiation was evaluated using primary hematopoietic precursors purified from murine bone marrow on the basis of the absence of surface differentiation antigens (lin-see methods). […] After 8-10 days, colonies were pooled and analysed for the expression of myeloid differentiation markers (Mac-1 and GR-1). […]

CC1=C(/C=C/C(C)=C/C=C/C(C)=C/C(=O)O)C(C)(C)CCC1 [RA, retinoic acid]
RA concentration that reverted transcriptional repression [1]: up to 100 nM | RA concentration that relieved the differentiation block [2]: 1 µM | RA concentration that relieved the differentiation block [3]: 1 µM | reduction in the number of Mac1+ cells [4]: 20-30%
